System: Arabidopsis transcriptome
Assay: cDNA microarray analysis of early transcriptomic changes in Arabidopsis seedlings
Type: in vivo, Arabidopsis thaliana
Conditions: 100 μM, 1 h
Method: Arabidopsis thaliana Columbia (Col-0) was the accession used for all the experiments. Seeds were surface sterilised by subsequent treatment with 50% v/v Et-OH and 3% bleach solution in agitation for 5 and 10 min, respectively. Seeds were then washed three times with distilled water and stratified for 3 days at 4° C. in the dark. For qPCR analysis and microarray experiments, seeds were sown on square petri dishes ([…]) containing half strength Murashige and Skoog (MS) salt, 2.5 mM MES, 1% w/v sucrose and 0.8% w/v plant agar. The experiments were performed using 14-day old seedlings grown vertically in a controlled growth cabinet with short day conditions ( 8/16 h light/dark; 100 μmol photons m^−2 s^−1) at 22±0.5° C. Treatments were performed by applying 40-50 μl of fresh-prepared and filtered solution per seedling.
For RNA extraction, 14-day old leaves from ten independent plants were collected at the indicated time point after treatments, pooled and frozen in liquid nitrogen. Total RNA was extracted from 100 mg of ground-frozen samples using the Maxwell® LEV Plant RNA Kit (Promega, Madison, WI, USA) and the RNA integrity was determined through NanoDrop 2000 UV-Vis Spectrophotometer (Thermo Scientific, Loughborough, UK). First-strand cDNA was synthesized by using SOLIScript® RT cDNA synthesis MIX (Solis Biodyne, Tartu, Estonia) and qPCRs were performed using SYBR® Selected MasterMix 2× (Applied Biosystems, Thermo Fisher Scientific, Waltham, USA), following the manufacturers' protocols. The cycling conditions consisted of an initial 7 min at 95° C., followed by 40 two-step cycles at 95° C. for 5 s and at 60° C. for 30 s. Melting curve analysis was performed after cycle completion to validate amplicon identity. Relative expression levels were calculated following the standard curve-based method (Larionov et al. A standard curve based method for relative real time PCR data processing, BMC Bioinformatics. 2005, vol. 6, 1) by using ACTIN as reference. Gene-specific primers used in this work are indicated below.
RNA sample preparation for microarray hybridization was carried out as described in the Applied Biosystems™ GeneChip™ Whole Transcript (WT) PLUS Reagent Kit User Guide (Thermo Fisher Scientific, Waltham, MA, USA). Briefly, 200 ng of total RNA was used to generate double-stranded cDNA. Twelve μg of subsequently synthesized cRNA were purified and reverse transcribed into single-stranded (ss)cDNA, where unnatural dUTP residues were incorporated. Purified and labelled sscDNAs were hybridised to Arabidopsis Gene 1.0 ST arrays (Affymetrix, Santa Clara, CA, USA) and the fluorescent signals were measured with an Applied Biosystems™ GeneChip Scanner 3000 7 G System. Sample processing was performed at a Genomics Core Facility, “KFB—Center of Excellence for Fluorescent Bioanalytics” (Regensburg, Germany).
Normalised probe set signals in log2 scale were calculated by using the RMA algorithm. Average linkage hierarchical clusters of differentially expressed genes were generated by using Cluster 3.0 and visualized by java TreeView.
In Arabidopsis, the DAMPs-dependent elicitation of PTI is known to be accompanied by a deep immune gene transcriptional reprogramming. […] The transcriptomic analysis was carried out by using Arabidopsis 1.0 ST microarray chip (Affymetrix, Santa Clara, CA, USA) and Differentially Expressed Genes (DEGs) were selected using two criteria: log2 expression ratios ≥1.5-fold or […] and Student's t-test p-value≤0.05.

AT3G26210 cytochrome P450 71B23 gene expression (Col-0 plants, vs control): 1.35 fold change
Compound: OC[C@H]1O[C@@H](O[C@H]2[C@H](O)[C@@H](O)[C@H](O)O[C@@H]2CO)[C@H](O)[C@@H](O)[C@@H]1O [Cellobiose, β-D-glucopyranosyl(1→4)D-glucopyranose]
changes in expression, number of differentially expressed genes (14-day old Arabidopsis plants): 440 genes
downregulated genes (14-day old Arabidopsis plants): 94 genes
upregulated genes (14-day old Arabidopsis plants): 346 genes
AT1G02360 putative chitinase gene expression (Col-0 plants, vs control): 1.03 fold change
AT1G02920 glutathione S-transferase F7 gene expression (Col-0 plants, vs control): 1.10 fold change
AT1G02930 glutathione S-transferase F6 gene expression (Col-0 plants, vs control): 1.18 fold change
AT1G03220 aspartyl protease-like protein gene expression (Col-0 plants, vs control): 1.08 fold change
AT1G07400 class I heat shock protein gene expression (Col-0 plants, vs control): 2.58 fold change
AT1G11100 SNF2, helicase and zinc-finger domain-containing protein gene expression (Col-0 plants, vs control): 1.70 fold change
AT1G13520 hypothetical protein gene expression (Col-0 plants, vs control): 2.05 fold change
AT1G14540 peroxidase 4 gene expression (Col-0 plants, vs control): 1.22 fold change
AT1G16110 wall associated kinase-like 6 gene expression (Col-0 plants, vs control): 1.46 fold change
AT1G18382 gene expression (Col-0 plants, vs control): 1.39 fold change
AT1G18570 myb domain protein 51 gene expression (Col-0 plants, vs control): 1.46 fold change
AT1G19020 hypothetical protein gene expression (Col-0 plants, vs control): 1.68 fold change
AT1G24145 hypothetical protein gene expression (Col-0 plants, vs control): 1.15 fold change
AT1G27020 hypothetical protein gene expression (Col-0 plants, vs control): 1.06 fold change
AT1G30700 FAD-binding Berberine family protein gene expression (Col-0 plants, vs control): 1.73 fold change
AT1G30755 hypothetical protein gene expression (Col-0 plants, vs control): 1.08 fold change
AT1G36622 hypothetical protein gene expression (Col-0 plants, vs control): 1.62 fold change
AT1G36640 hypothetical protein gene expression (Col-0 plants, vs control): 1.27 fold change
AT1G49000 hypothetical protein gene expression (Col-0 plants, vs control): 1.67 fold change
AT1G51790 leucine-rich repeat protein kinase-like protein gene expression (Col-0 plants, vs control): 1.99 fold change
AT1G51800 putative leucine-rich repeat protein kinase gene expression (Col-0 plants, vs control): 2.44 fold change
AT1G51820 SIF2 gene expression (Col-0 plants, vs control): 6.99 fold change
AT1G51850 Leucine-rich repeat protein kinase family protein gene expression (Col-0 plants, vs control): 4.14 fold change
AT1G51890 probable LRR receptor-like protein kinase gene expression (Col-0 plants, vs control): 1.91 fold change
AT1G51920 hypothetical protein gene expression (Col-0 plants, vs control): 1.55 fold change
AT1G52200 PLAC8 family protein gene expression (Col-0 plants, vs control): 1.57 fold change
AT1G53625 hypothetical protein gene expression (Col-0 plants, vs control): 1.55 fold change
AT1G54050 CIII heat shock protein 17.4 gene expression (Col-0 plants, vs control): 1.36 fold change
AT1G55450 S-adenosyl-L-methionine-dependent methyltransferases superfamily protein gene expression (Col-0 plants, vs control): 1.19 fold change
AT1G59865 hypothetical protein gene expression (Col-0 plants, vs control): 2.57 fold change
AT1G61360 G-type lectin S-receptor-like serine/threonine-protein kinase gene expression (Col-0 plants, vs control): 1.18 fold change
AT1G61560 MLO-like protein 6 gene expression (Col-0 plants, vs control): 1.14 fold change
AT1G64400 long-chain acyl-CoA synthetase gene expression (Col-0 plants, vs control): 1.18 fold change
AT1G65845 hypothetical protein gene expression (Col-0 plants, vs control): 1.99 fold change
AT1G74310 chaperone protein ClpB1 gene expression (Col-0 plants, vs control): 2.87 fold change
AT1G79680 wall-associated receptor kinase-like 10 gene expression (Col-0 plants, vs control): 1.62 fold change
AT2G02010 glutamate decarboxylase 4 gene expression (Col-0 plants, vs control): 1.11 fold change
AT2G15220 basic secretory protein family protein gene expression (Col-0 plants, vs control): 1.08 fold change
AT2G17740 cysteine/histidine-rich C1 domain-containing protein gene expression (Col-0 plants, vs control): 1.04 fold change
AT2G19190 FLG22-induced receptor-like kinase 1 gene expression (Col-0 plants, vs control): 1.38 fold change
AT2G22880 VQ motif-containing protein gene expression (Col-0 plants, vs control): 1.35 fold change
AT2G26150 heat stress transcription factor A-2 gene expression (Col-0 plants, vs control): 2.19 fold change
AT2G26560 phospholipase A 2A gene expression (Col-0 plants, vs control): 2.02 fold change
AT2G27660 cysteine/histidine-rich C1 domain-containing protein gene expression (Col-0 plants, vs control): 1.63 fold change
AT2G29500 HSP20 family protein gene expression (Col-0 plants, vs control): 3.11 fold change
AT2G36220 hypothetical protein gene expression (Col-0 plants, vs control): 1.44 fold change
AT2G36690 2-oxoglutarate (2OG) and Fe(II)-dependent oxygenase superfamily protein gene expression (Col-0 plants, vs control): 1.99 fold change
AT2G38870 PR-6 proteinase inhibitor family protein gene expression (Col-0 plants, vs control): 1.27 fold change
AT2G39200 protein MILDEW RESISTANCE LOCUS O 12 gene expression (Col-0 plants, vs control): 2.09 fold change
AT2G39210 major facilitator protein gene expression (Col-0 plants, vs control): 1.67 fold change
AT2G39518 hypothetical protein gene expression (Col-0 plants, vs control): 2.22 fold change
AT2G43620 chitinase family protein gene expression (Col-0 plants, vs control): 2.15 fold change
AT2G44490 PEN2 gene expression (Col-0 plants, vs control): 1.20 fold change
AT2G46240 BCL-2-associated athanogene 6 gene expression (Col-0 plants, vs control): 2.00 fold change
AT3G08970 J domain protein ATERDJ3A gene expression (Col-0 plants, vs control): 2.46 fold change
AT3G09350 protein Fes1A gene expression (Col-0 plants, vs control): 2.18 fold change
AT3G12580 heat shock protein 70-4 gene expression (Col-0 plants, vs control): 3.24 fold change
AT3G12910 no apical meristem domain-containing transcriptional regulator gene expression (Col-0 plants, vs control): 1.36 fold change
AT3G14200 chaperone DnaJ-domain containing protein gene expression (Col-0 plants, vs control): 2.55 fold change
AT3G15500 ATAF-like NAC-domain transcription factor gene expression (Col-0 plants, vs control): 1.20 fold change
AT3G16030 G-type lectin S-receptor-like serine/threonine-protein kinase CES101 gene expression (Col-0 plants, vs control): 1.47 fold change
AT3G22060 Receptor-like protein kinase-related family protein gene expression (Col-0 plants, vs control): 1.31 fold change
AT3G24500 multiprotein-bridging factor 1c gene expression (Col-0 plants, vs control): 1.75 fold change
